# “Also recorded” adds a separate entry of the source.
# Legend:
# [1] = tested on: Sprague Dawley rat; test: Morris water maze after blast injury (cognitive performance); format: in vivo
# Description: (§1) The administration of salubrinal prior to bTBI was also evaluated in an animal model. Use of the salubrinal ameliorated neuropsychiatric deficits in the form of impulsive-like behavior as measured by the elevated plus maze test/protocol, and spatial memory as measured by the Morris water maze test/protocol. This example assessed the successful targeting of ER stress after TBI. […] A Sprague Dawley rat was positioned in a protective tube to prevent injury to the peripheral organs, and an acceleration wave was generated and allowed to collide with the skull of the rat. The intensity of the injury was adjusted in a step-wise manner by decreasing or increasing the thickness of the membrane that exploded with pressurized nitrogen gas. An injury paradigm of 50 PSI was selected, which correlates with human concussion, that is the most common type of injury linked to CTE. In FIG. 4, the peak in plot D illustrates the 50 PSI pressure wave. The Sprague Dawley rats were given either one injury, or six injuries over a two-week period. Various time points of sacrifice were chosen to look at markers of ER stress and tauopathy. In this example, the effect of targeting (turning off) ER stress on improved behavior was studied by utilizing the injury models and standard protocols for Morris water maze and elevated plus maze. The Morris water maze detected deficits in cognitive performance whereas the elevated plus maze evaluated impulsive-like behavior. […] ANOVA was used for statistical analysis with *=p<0.05, **=p<0.01, ***=p<0.001. When drug was compared to injury group #=p<0.05, ##=p<0.01, ###=p<0.001.
# [2] = tested on: ER stress; test: ER stress, tau kinase and apoptosis markers after blast-induced TBI (western blot, immunohistochemistry, PCR); format: in vivo, Sprague Dawley rat
# Description: An animal model was used to evaluate TBI, and neuropathological specimens (donated by the Brain Injury Research Institute brain bank) were used to evaluate CTE. TBI was blast induced in the animal model. […] Salubrinal was administered to the animal model following the injury. The ER stress was modulated by the use of salubrinal. […] This example assessed the successful targeting of ER stress after TBI. […] A Sprague Dawley rat was positioned in a protective tube to prevent injury to the peripheral organs, and an acceleration wave was generated and allowed to collide with the skull of the rat. The intensity of the injury was adjusted in a step-wise manner by decreasing or increasing the thickness of the membrane that exploded with pressurized nitrogen gas. An injury paradigm of 50 PSI was selected, which correlates with human concussion, that is the most common type of injury linked to CTE. In FIG. 4, the peak in plot D illustrates the 50 PSI pressure wave. The Sprague Dawley rats were given either one injury, or six injuries over a two-week period. Various time points of sacrifice were chosen to look at markers of ER stress and tauopathy. Salubrinal was administered to the rats after injury to target ER stress. Salubrinal was administered by IP injection 30 minutes after injury using a dose of 1 mg/kg. […] Salubrinal-mediated CHOP reduction may be associated with preservation of the pro-form of Caspase-12 that when cleaved, has been associated with ER-mediated apoptosis or cell death. Reducing CHOP with salubrinal also may result in reduction of sustained oxidative stress and neuro-inflammation. LICOR western blot protocols, IHC world immunohistochemistry protocols, and Applied Biosystems PCR protocols were used for the assays. ANOVA was used for analysis with p<0.05 being statistically significant. *=p<0.05, **=p<0.01, ***=p<0.001. When the drug group was compared to the injury group #=p<0.05, ##=p<0.01, ###=p<0.001.
# [3] = tested on: neuroinflammation; test: Neuroinflammation markers after blast injury; format: in vivo, Sprague Dawley rat
# Description: This example assessed the successful targeting of ER stress after TBI. […] A Sprague Dawley rat was positioned in a protective tube to prevent injury to the peripheral organs, and an acceleration wave was generated and allowed to collide with the skull of the rat. The intensity of the injury was adjusted in a step-wise manner by decreasing or increasing the thickness of the membrane that exploded with pressurized nitrogen gas. An injury paradigm of 50 PSI was selected, which correlates with human concussion, that is the most common type of injury linked to CTE. In FIG. 4, the peak in plot D illustrates the 50 PSI pressure wave. The Sprague Dawley rats were given either one injury, or six injuries over a two-week period. Various time points of sacrifice were chosen to look at markers of ER stress and tauopathy. Salubrinal was administered to the rats after injury to target ER stress. Salubrinal was administered by IP injection 30 minutes after injury using a dose of 1 mg/kg. […] Salubrinal-mediated CHOP reduction may be associated with preservation of the pro-form of Caspase-12 that when cleaved, has been associated with ER-mediated apoptosis or cell death. Reducing CHOP with salubrinal also may result in reduction of sustained oxidative stress and neuro-inflammation. LICOR western blot protocols, IHC world immunohistochemistry protocols, and Applied Biosystems PCR protocols were used for the assays. ANOVA was used for analysis with p<0.05 being statistically significant. *=p<0.05, **=p<0.01, ***=p<0.001. When the drug group was compared to the injury group #=p<0.05, ##=p<0.01, ###=p<0.001. […] Measured components included NF kappa B (plot A), inducible nitric oxide synthase (iNOS) (plot B), interleukin 1 beta (IL-1β) (plot C), and tumor necrosis factor alpha (TNFα) (plot D). As shown in plots A, C and D, salubrinal administration (sTBI+SAL) reduced pro-inflammatory markers NFκB, IL-1β and TNFα, respectively.
# [4] = tested on: oxidative stress; test: Oxidative stress markers after blast injury; format: in vivo, Sprague Dawley rat
# Description: This example assessed the successful targeting of ER stress after TBI. […] A Sprague Dawley rat was positioned in a protective tube to prevent injury to the peripheral organs, and an acceleration wave was generated and allowed to collide with the skull of the rat. The intensity of the injury was adjusted in a step-wise manner by decreasing or increasing the thickness of the membrane that exploded with pressurized nitrogen gas. An injury paradigm of 50 PSI was selected, which correlates with human concussion, that is the most common type of injury linked to CTE. In FIG. 4, the peak in plot D illustrates the 50 PSI pressure wave. The Sprague Dawley rats were given either one injury, or six injuries over a two-week period. Various time points of sacrifice were chosen to look at markers of ER stress and tauopathy. Salubrinal was administered to the rats after injury to target ER stress. Salubrinal was administered by IP injection 30 minutes after injury using a dose of 1 mg/kg. […] Salubrinal-mediated CHOP reduction may be associated with preservation of the pro-form of Caspase-12 that when cleaved, has been associated with ER-mediated apoptosis or cell death. Reducing CHOP with salubrinal also may result in reduction of sustained oxidative stress and neuro-inflammation. LICOR western blot protocols, IHC world immunohistochemistry protocols, and Applied Biosystems PCR protocols were used for the assays. ANOVA was used for analysis with p<0.05 being statistically significant. *=p<0.05, **=p<0.01, ***=p<0.001. When the drug group was compared to the injury group #=p<0.05, ##=p<0.01, ###=p<0.001. […] Measured components included carbonyls (plot A), superoxide (plot B), reactive oxygen species (ROS) (plot C), and NADPH oxidase 4 (NOX4) (plot D). As shown in A, B and […], administration of salubrinal (sTBI+SAL) reduced protein carbonyls, super-oxides, and total oxidative stress production, respectively.
# [5] = tested on: Sprague Dawley rat; test: Elevated plus maze after blast injury (impulsive-like behavior); format: in vivo
# Description: as §1
# [6] = bTBI animal model, administered following the injury
# [7] = post-blast administration (FIG. 6)
compound,measurement,setting,value
CC/C=C\C/C=C\C/C=C\C/C=C\C/C=C\C/C=C\CCC(=O)O [DHA],"cognitive learning, Morris water maze",[1]; after injury (FIG. 13 panel D),improved
same,"retention of a learned event, probe trial",[1]; after injury (FIG. 13 panel E),enhanced
same,ER stress activator BiP,[2]; three weeks following repetitive injury (FIG. 10 plot A),inhibited
same,tau kinase GSK3β,[2]; three weeks following repetitive injury (FIG. 10 plot B),inhibited
"O=C(/C=C/c1ccccc1)NC(NC(=S)Nc1cccc2cccnc12)C(Cl)(Cl)Cl (stereo not drawn) [salubrinal, 3-phenyl-N-[2,2,2-trichloro-1-[[(8-quinolinylamino)thioxomethyl]amino]ethyl]-2-propenamide]",NFκB (pro-inflammatory marker),[3]; 24 hours after injury (FIG. 8 plot A),reduced
same,IL-1β (pro-inflammatory marker),[3]; 24 hours after injury (FIG. 8 plot C),reduced
same,TNFα (pro-inflammatory marker),[3]; 24 hours after injury (FIG. 8 plot D),reduced
same,protein carbonyls,[4]; 24 hours after injury (FIG. 7 plot A),reduced
same,super-oxides,[4]; 24 hours after injury (FIG. 7 plot B),reduced
same,total oxidative stress production,[4]; 24 hours after injury (FIG. 7 plot D),reduced
same,"neuropsychiatric deficits: spatial memory, Morris water maze",[1]; administered prior to bTBI,ameliorated
same,"impulsive-like behavior, time spent in the open arm of the elevated plus maze","[5]; administered after injury, 72 hours after the repeat injury (FIG. 12)",reduced
same,"impulsive-like behavior, time in the open arm of the elevated plus maze","[5]; administered after injury, seven days after a single injury (FIG. 11)",reduced
same,"neuropsychiatric deficits: impulsive-like behavior, elevated plus maze",[5]; administered prior to bTBI,ameliorated
same,GSK3β activity,[2]; 1 mg/kg IP 30 minutes after injury,reduced
same,CHOP (marker of ER stress),"[2]; 1 mg/kg IP 30 minutes after injury, 24 hours after a single blast injury (FIG. 5 plot C)",prevented the surge; also recorded: significantly reduced
same,GADD34 (marker of ER stress),"[2]; 1 mg/kg IP 30 minutes after injury, 24 hours after a single blast injury (FIG. 5 plot E)",inhibited; also recorded: significantly reduced
same,ER stress,[2]; [6],modulated
same,markers of neural degeneration and apoptosis,[2]; [6],reducing
same,CHOP by immunohistochemistry,[2]; [7],significantly reduced
same,cleaved Caspase 3 (pro-apoptotic marker) by immunohistochemistry,[2]; [7],reduced

# Reference: patent US20200016145A1, “TREATMENT OF CHRONIC TRAUMATIC ENCEPHALOPATHY” (CTEC LLC, priority 2018, published 2020)
